How the values were obtained:
[1] = tested on: patients with resistant hypertension; assay: 24-hour ambulatory blood pressure monitoring (ABPM) at week 10; assay type: in vivo, human
Method: (§1) In this randomized, double-blind, placebo-controlled, dose-titration study, patients were randomized 2:1 to receive escalating doses of darusentan or placebo once daily in the morning for 10 weeks after completing a 2-week placebo run-in period (FIG. 1). Darusentan was initiated at a dose of 10 mg/day and escalated every 2 weeks at doses of 50, 100 and 150 mg/day until reaching a maximum of 300 mg/day. […] Patients were withdrawn from the study if a subsequent dose reduction was required. After completion of the 10-week treatment period, patients were withdrawn from study medication over a maximum of 2 weeks. This study was approved by an Institutional Review Board/Independent Ethics Committee and conducted in accordance with the principles of Good Clinical Practices and the revised Declaration of Helsinki.
(§2) Co-primary efficacy endpoints were the changes from baseline through weeks 8 and 10 (i.e., doses of 150 and 300 mg) in trough sitting SBP. Blood pressure was measured at every study visit (baseline and weeks 2, 4, 6, 8 and 10) using standard sphygmomanometry. Secondary variables included 24-hour SBP as measured by ambulatory blood pressure monitoring (ABPM), percentage of patients who achieved SBP goal, trough sitting DBP, and urinary albumin to creatinine ratio. Ambulatory blood pressure monitoring was recorded once before randomization and repeated during the 24 hours immediately preceding the week 10 study visit. Urine samples for determination of albumin to creatinine ratio were collected at screening, baseline and week 10.
A nonlinear mixed effect model was used for the analysis of change in blood pressure, with comorbidity status as a covariate. This model used all observed blood pressure measurements with no imputation for missing values. Linear contrast statements were used to test the slope through a given time point to test the effect of the dose administered on that week. Estimates of treatment effect were obtained via least square means. […]

[2] = tested on: patients with resistant hypertension; assay: Urinary albumin to creatinine ratio (renal function); assay type: in vivo, human; conditions: for Albumin to creatinine ratio, % Change from baseline, Mean: week 10
Method: as §2

[3] = tested on: patients with resistant hypertension; assay: Safety and tolerability assessments in the clinical study; assay type: in vivo, human; conditions: for Treatment-emergent adverse events, Patients, %: n = 76
Method: as §1
Physical examinations, vital sign measurements, clinical chemistry and hematologic laboratory tests, and electrocardiography were performed at the screening visit and periodically throughout the study. Blood samples were obtained at baseline and at weeks 4 and 10 during study drug treatment to monitor liver function. Additional blood samples were drawn from male patients at baseline and week 10 to assess follicle stimulating hormone, inhibin B, luteinizing hormone and testosterone levels. Male fertility was assessed by analysis of semen samples obtained within 2 weeks before baseline and within 2 weeks before week 10. Adverse events were monitored throughout the study.
(§3) A nonlinear mixed effect model was used for the analysis of change in blood pressure, with comorbidity status as a covariate. This model used all observed blood pressure measurements with no imputation for missing values. Linear contrast statements were used to test the slope through a given time point to test the effect of the dose administered on that week. Estimates of treatment effect were obtained via least square means. Response rates were compared with logistic regression models at each blood pressure measurement with comorbidity status as a covariate; missing values were imputed with last observation carried forward for these models. Safety summaries include all patients who received ≧1 dose of blinded study medication.

[4] = tested on: patients with resistant hypertension; assay: Trough/peak sitting blood pressure by standard sphygmomanometry, randomized placebo-controlled dose-titration study; assay type: in vivo, human; conditions: for Percent of patients achieving SBP goal, Responders, n (%): n = 76
Method: In this randomized, double-blind, placebo-controlled, dose-titration study, 115 patients with resistant hypertension as defined by JNC 7 guidelines were randomized 2:1 to receive escalating doses of darusentan (10, 50, 100, 150 and 300 mg) or placebo once daily for 10 weeks. Darusentan dose was increased every 2 weeks.
Patients (35 to 85 years of age) with resistant hypertension as defined by the JNC 7 guidelines and who were treated with and adhered to full doses of JNC 7 recommended antihypertensives, including a diuretic and two or more antihypertensive medications from different drug classes, defined as (a) ACE inhibitors and angiotensin II receptor blockers, (b) beta-adrenergic receptor blockers, and (c) calcium channel blockers, were eligible to participate in the study. Patients also were required to have an estimated glomerular filtration rate (GFR) ≧30 mL/min/1.73 m^2 during the screening period. Women of childbearing potential were required to have a negative serum pregnancy test at the screening visit and a negative urine pregnancy test at baseline, and they must have agreed to use a reliable double-barrier method of contraception throughout the study and for at least 4 weeks after the last study visit. Patients with an average sitting SBP ≧180 mmHg, […], hemoglobin A1c >10%, hemoglobin concentration <10 g/dL, hematocrit <30%, serum thyroid stimulating hormone concentration >1.5× the upper limit of normal (ULN), or serum alanine aminotransferase (ALT) or aspartate aminotransferase (AST)>2×ULN during the screening period were excluded from the study. […] All patients provided written informed consent.
as §1, §2
as §3, with “medication. […]” for “medication.”

[5] = tested on: patients with moderate hypertension; conditions: 10 to 100 mg/day, no other antihypertensive drugs; cited from earlier work

COc1cc(OC)nc(O[C@H](C(=O)O)C(OC)(c2ccccc2)c2ccccc2)n1 [Darusentan, (+)-(S)-2-[(4,6-dimethoxy-2-pyrimidinyl)oxy]-3-methoxy-3,3-diphenylpropionic acid]
placebo-adjusted reduction in mean 24-hour systolic ABP ([1]; 300 mg): 9.2±2.2 mmHg
decrease in day-time SBP (ABP) ([1]; placebo 2.2±2.4 mmHg): 10.9±1.4 mmHg
decrease in night-time SBP (ABP) ([1]; placebo 3.8±2.7 mmHg): 11.9±1.6 mmHg
Geometric mean albumin to creatinine ratio, Week 10 ([2]; All observed patients, n 65, baseline 12.6): 9.4 mg/g
Albumin to creatinine ratio, % Change from baseline, Mean ([2]; All observed patients): −25.3%
Geometric mean albumin to creatinine ratio, Week 10 ([2]; Baseline ratio >30 mg/g, n 12, baseline 145.4): 73.6 mg/g
Albumin to creatinine ratio, % Change from baseline, Mean ([2]; Baseline ratio >30 mg/g): −49.4%
Geometric mean albumin to creatinine ratio, Week 10 ([2]; Baseline ratio ≦30 mg/g, n 53, baseline 7.2): 5.9 mg/g
Albumin to creatinine ratio, % Change from baseline, Mean ([2]; Baseline ratio ≦30 mg/g): −18.4%
patients with elevations in ALT or AST >2×ULN ([3]; 10-week treatment): no
Treatment-emergent adverse events, Patients, % ([3]; Arthralgia): (3) %
Treatment-emergent adverse events, Patients, % ([3]; Diarrhea): (1) %
Treatment-emergent adverse events, Patients, % ([3]; Dizziness): (7) %
Treatment-emergent adverse events, Patients, % ([3]; Gastroenteritis): (5) %
Treatment-emergent adverse events, Patients, % ([3]; Nasopharyngitis): (7) %
Treatment-emergent adverse events, Patients, % ([3]; Sinusitis): (8) %
Treatment-emergent adverse events, Patients, % ([3]; Upper respiratory tract infection): (5) %
patients with decrease in hematocrit reported as adverse event ([3]; all events mild): 2 patients
patients with decrease in hemoglobin reported as adverse event ([3]; all events mild): 2 patients
cases of severe peripheral edema ([3]; darusentan group): one case
serious adverse events considered related to study medication ([3]; darusentan group): None and no drug-related serious adverse events
improvements in trough sitting SBP and DBP, dose relation ([4]; 10 to 300 mg once daily, titrated every 2 weeks): dose dependent
Percent of patients achieving SBP goal, Responders, n (%) ([4]; Week 2 (10 mg)): 23 (30.3) n (%)
Percent of patients achieving SBP goal, Responders, n (%) ([4]; Week 4 (50 mg)): 36 (47.4) n (%)
Percent of patients achieving SBP goal, Responders, n (%) ([4]; Week 6 (100 mg)): 34 (44.7) n (%)
Percent of patients achieving SBP goal, Responders, n (%) ([4]; Week 8 (150 mg)): 32 (42.1) n (%)
Percent of patients achieving SBP goal, Responders, n (%) ([4]; Week 10 (300 mg)): 37 (48.7) n (%)
patients achieving SBP goal (JNC 7) ([4]; end of treatment (week 10), placebo 28%): 49%
effect on SBP and DBP by comparison with placebo [5]: significantly reduce

From patent US20090221549A1, “ANTIHYPERTENSIVE THERAPY” (Gilead Colorado, Inc., priority 2006, published 2009)
